# From US20100197797A1 (priority 2009, published 2010)
# Tests used:
# healthy subjects [1] = assay: QTcF interval study, placebo- and positive-controlled; type: in vivo, human; conditions: 600 mg/day
# Text: After baseline and placebo adjustment, the maximum mean QTcF change was 8 ms (2-sided 90% CI, 3-12 ms).
# healthy subjects [2] = assay: Placebo-controlled clinical pharmacology study, blood pressure at supratherapeutic doses; type: in vivo, human; conditions: 300 mg twice daily, 12 hour steady state dosing interval
# Human pharmacokinetics = conditions: in vivo
# Procedure: The pharmacokinetic parameters described herein include area under the plasma concentration-time curve (AUC0-t and AUC0-∞), maximum plasma concentration (Cmax), time of maximum plasma concentration (Tmax) and terminal elimination half-life (T1/2). The time of maximum concentration, Tmax, is determined as the time corresponding to Cmax. Area under the plasma concentration-time curve up to the time corresponding to the last measurable concentration (AUC0-t) is calculated by numerical integration using the linear trapezoidal rule as follows: […]
# fibromyalgia = assay: Study 2, 3-month fibromyalgia efficacy study; type: in vivo, human
# Text: Enrolled patients met the American College of Rheumatology (ACR) criteria for fibromyalgia (a history of widespread pain for 3 months and pain present at 11 or more of the 18 specific tender point sites). […] Study 1 was six months in duration and Study 2 was three months in duration.
# Patients were enrolled with a minimum mean baseline pain score of ≧40 mm on a 100-mm VAS ranging from 0 (“no pain”) to 100 (“worst possible pain”). The mean baseline pain score in this trial was 65.
# Solubility = type: physicochemical
smiles,measurement,setting,value
"CCN(CC)C(=O)C1(c2ccccc2)CC1CN.Cl (racemic) [milnacipran hydrochloride, (±)-[1R(S),2S(R)]-2-(aminomethyl)-N,N-diethyl-1-phenylcyclopropanecarboxamide hydrochloride]",clinical significance of QTcF increase,healthy subjects [1],not considered to be clinically significant
same,maximum mean QTcF change,"healthy subjects [1]; after baseline and placebo adjustment (2-sided 90% CI, 3-12 ms)",8 ms
same,mean increase in supine diastolic blood pressure,healthy subjects [2],up to 11.5 mm Hg
same,mean increase in supine systolic blood pressure,healthy subjects [2],up to 10.0 mm Hg
same,effect of food on absorption,Human pharmacokinetics,not affected by food
same,patients with at least 30% reduction in pain from baseline (VAS) and globally improved (PGIC) vs placebo,"fibromyalgia; 100 mg and 200 mg daily, 3-month time point",More patients
same,benefit of 200 mg/day vs 100 mg/day,fibromyalgia; in vivo,did not confer greater benefit
same,solubility,Solubility; chloroform,freely soluble
same,solubility,Solubility; diethyl ether,sparingly soluble
same,solubility,Solubility; ethanol,freely soluble
same,solubility,Solubility; methanol,freely soluble
same,solubility,Solubility; methylene chloride,freely soluble
same,solubility,Solubility; water,freely soluble
